Key:
[1] = test system: mesenchymal stem cells (adipose stem cells); experiment: Effect of lovastatin on formation of calcified ECM during osteogenic differentiation of adipose stem cells; type: cell-based, human
Description: Adipose stem cells were tested for their ability to differentiate into osteocytes by culturing the stem cells in a medium composed of a modified MEM (Chang et al. (1981) Somatic Cell Genetics 7: 235) with 10% FBS and supplemented with 0.1 μM dexamethasone, 50 μM L-ascorbate-2-phosphate, and 10 mM […] disodium for about two to four weeks. Osteogenesis was identified by the presence of calcified extracellular matrix (ECM) in unstained cells (FIG. 32(a)) or using Von Kossa staining (FIG. 32(b)), the quantitative measurement of calcium in calcified ECM (Zuk et al. (2001) Tissue Engineering 7: 211), and the quantitative measurement of calcium in culture medium.
Osteoporosis is a disorder that occurs when the amount of bone removed from the skeleton by bone-resorbing osteoclasts exceeds the amount of bone formed by osteoblasts. Statins may decrease bone resorption by preventing osteoclast activation that is mediated by farnesyl-pp and geranylgeranyl-pp (Cruz et al., (2002) Cleveland Clinic J. Med. 69:277-288). Experiments were performed to test the effect of lovastatin on the formation of calcified ECM using adipocyte cells that were differentiated into osteocytes as described supra. […]

[2] = test system: L1SV1A1 cells; experiment: Albumin expression by immunostaining in immortal liver cell line cultured with hepatocyte growth factor; type: cell-based, human; settings: HGF 20 ng/ml in modified Eagle's MEM with high calcium; days after initiation of induction
Description: Both immunostaining and Western blotting were used to characterize gene expression for clonally derived liver cell culture. For immunostaining, the cells grown in 35 mm plates were washed with phosphate-buffered saline (PBS) and fixed with 4% paraformaldehyde in PBS. After rinsing with PBS, the cells were permeabilized (0.5% Triton® X-100, 2% BSA, and 0.05% NaN3 in PBS) for 10 minutes. The cells were then incubated with the primary antibody diluted to the required concentration in PBS/Triton® X-100/BSA overnight at room temperature. After rinsing with PBS, the cells were incubated with a secondary antibody conjugated with FITC or Cy3 in PBS/Triton/BSA buffer for 1 hour at room temperature. […] After thoroughly washing the cells with PBS, the phase image and fluorescence of cells was observed and recorded using a Nikon Elipse TE 300 microscope connected to a digital camera and computer. […]
Furthermore, cells of the immortal liver cell line L1SV1A1, derived from HL1-1 (described infra), that were cultured in the modified Eagle's MEM (Chang et al. (1981) Somat. Cell Genet. 7: 235-53) containing hepatocyte growth factor (HGF) (He et al. (2003) Differentiation 71: 281-90) (20 ng/ml) expressed the hepatocyte protein, albumin, as detected by immunostaining (FIGS. 21(a)-21(c)). […]

Molecule	formation of calcified ECM (microscopic inspection) ([1]; 0.2 μM lovastatin added with osteogenic medium, compared to induced control cultures without lovastatin)	total calcium ([1]; 0.2 μM lovastatin in osteogenic medium vs induced control, FIG. 35)	expression of the hepatocyte protein albumin (immunostaining) [2]
CC[C@H](C)C(=O)O[C@H]1C[C@@H](C)C=C2C=C[C@H](C)[C@H](CC[C@@H]3C[C@@H](O)CC(=O)O3)[C@H]21 [lovastatin]	significantly less formation of calcified ECM	confirmed this observation	–
hepatocyte growth factor: hepatocyte growth factor (HGF), used as hepatocyte differentiation agent	–	–	detectable at 33 days but not at 22 days

Reference: patent US20050260748A1, “Adult stem cells and uses thereof” (Michigan State University, priority 2004, published 2005)
